Measured values published in US20060264388A1, “Method for treating liver cancer by intrahepatic administration of nemorubicin” (priority 2003, published 2006).

Tests used:
[1] = system: murine leukemias, solid murine and human tumor models; conditions: cited from earlier work
[2] = system: patients with liver cancer; assay: Liver toxicity (SGOT, SGPT, Total Bilirubin), worst CTC Grade by cycle, intrahepatic artery nemorubicin q8wk vs q6wk; format: in vivo, human
Method: (§1) The objective of the study was to shorten the time interval between treatment administrations from every 8 weeks (q8wk) of the protocol as reported in WO 00/15203 to every 6 weeks (q6wk). This was done in the attempt of improving the therapeutic potential of nemorubicin treatment through an increase of the dose intensity of the therapy, simultaneously safeguarding patient safety.
(§2) Overall, 13 patients were treated with the q8wk schedule (total 25 cycles administered; doses ranged from 200 to 800 mcg/m^2), and 11 patients were treated with the q6wk schedule (total 32 cycles administered; doses were 200 and 600 mcg/m^2).
The NCI-Common Tosicity Criteria grading system (CTC Grade), Version 2.0, was used to report toxicities.

[3] = system: human liver tumor; assay: Efficacy: tumor response, intrahepatic artery nemorubicin q8wk vs q6wk; format: in vivo
Method: as §1, §2

[4] = 200 mcg/m^2 q6wk, 12 evaluable cycles
[5] = 200 mcg/m^2 q8wk, 5 evaluable cycles
[6] = 400 mcg/m^2 q8wk, 4 evaluable cycles
[7] = 600 mcg/m^2 q6wk, 17 evaluable cycles
[8] = 600 mcg/m^2 q6wk, 18 evaluable cycles
[9] = 600 mcg/m^2 q8wk, 7 evaluable cycles
[10] = 800 mcg/m^2 q8wk, 5 evaluable cycles
[11] = 800 mcg/m^2 q8wk, 6 evaluable cycles

COc1cccc2c1C(=O)c1c(O)c3c(c(O)c1C2=O)C[C@@](O)(C(=O)CO)C[C@@H]3O[C@H]1C[C@H](N2CCO[C@H](OC)C2)[C@H](O)[C@H](C)O1.Cl [nemorubicin, 3′desamino-3′[2(S)methoxy-4-morpholinyl]doxorubicin-hydrochloride]
antitumor activity ([1]; after i.p., i.v. or oral administration, murine leukemias, solid murine and human tumor models): good antitumor activity
effective oral doses, fold higher than the effective i.v. doses ([1]; animal tumor models, oral vs i.v.): 1.3-2 fold
optimal i.v. dose, fold less than that of doxorubicin ([1]; in vivo, i.v.): at least 80 fold
SGOT, worst CTC Grade by cycle (increased of at least one Grade versus baseline Grade): All Grades (%) [2, 4]: 9 (75%) (%)
SGOT, worst CTC Grade by cycle (increased of at least one Grade versus baseline Grade): Grade 1-2 (%) [2, 4]: 8 (67%) (%)
SGOT, worst CTC Grade by cycle (increased of at least one Grade versus baseline Grade): Grade 3-4 (%) [2, 4]: 1 (8%) (%)
SGPT, worst CTC Grade by cycle (increased of at least one Grade versus baseline Grade): All Grades (%) [2, 4]: 7 (58%) (%)
SGPT, worst CTC Grade by cycle (increased of at least one Grade versus baseline Grade): Grade 1-2 (%) [2, 4]: 7 (58%) (%)
Total Bilirubin, worst CTC Grade by cycle (increased of at least one Grade versus baseline Grade): All Grades (%) [2, 4]: 10 (83%) (%)
Total Bilirubin, worst CTC Grade by cycle (increased of at least one Grade versus baseline Grade): Grade 1-2 (%) [2, 4]: 10 (83%) (%)
SGOT, worst CTC Grade by cycle (increased of at least one Grade versus baseline Grade): All Grades (%) [2, 5]: 3 (60%) (%)
SGOT, worst CTC Grade by cycle (increased of at least one Grade versus baseline Grade): Grade 1-2 (%) [2, 5]: 3 (60%) (%)
SGPT, worst CTC Grade by cycle (increased of at least one Grade versus baseline Grade): All Grades (%) [2, 5]: 4 (80%) (%)
SGPT, worst CTC Grade by cycle (increased of at least one Grade versus baseline Grade): Grade 1-2 (%) [2, 5]: 4 (80%) (%)
Total Bilirubin, worst CTC Grade by cycle (increased of at least one Grade versus baseline Grade): All Grades (%) [2, 5]: 5 (100%) (%)
Total Bilirubin, worst CTC Grade by cycle (increased of at least one Grade versus baseline Grade): Grade 1-2 (%) [2, 5]: 5 (100%) (%)
SGOT, worst CTC Grade by cycle (increased of at least one Grade versus baseline Grade): All Grades (%) [2, 6]: 4 (100%) (%)
SGOT, worst CTC Grade by cycle (increased of at least one Grade versus baseline Grade): Grade 1-2 (%) [2, 6]: 1 (25%) (%)
SGOT, worst CTC Grade by cycle (increased of at least one Grade versus baseline Grade): Grade 3-4 (%) [2, 6]: 3 (75%) (%)
SGPT, worst CTC Grade by cycle (increased of at least one Grade versus baseline Grade): All Grades (%) [2, 6]: 3 (75%) (%)
SGPT, worst CTC Grade by cycle (increased of at least one Grade versus baseline Grade): Grade 1-2 (%) [2, 6]: 2 (50%) (%)
SGPT, worst CTC Grade by cycle (increased of at least one Grade versus baseline Grade): Grade 3-4 (%) [2, 6]: 1 (25%) (%)
Total Bilirubin, worst CTC Grade by cycle (increased of at least one Grade versus baseline Grade): All Grades (%) [2, 6]: 2 (50%) (%)
Total Bilirubin, worst CTC Grade by cycle (increased of at least one Grade versus baseline Grade): Grade 1-2 (%) [2, 6]: 2 (50%) (%)
SGOT, worst CTC Grade by cycle (increased of at least one Grade versus baseline Grade): All Grades (%) [2, 7]: 16 (94%) (%)
SGOT, worst CTC Grade by cycle (increased of at least one Grade versus baseline Grade): Grade 1-2 (%) [2, 7]: 14 (82%) (%)
SGOT, worst CTC Grade by cycle (increased of at least one Grade versus baseline Grade): Grade 3-4 (%) [2, 7]: 2 (12%) (%)
SGPT, worst CTC Grade by cycle (increased of at least one Grade versus baseline Grade): All Grades (%) [2, 8]: 16 (89%) (%)
SGPT, worst CTC Grade by cycle (increased of at least one Grade versus baseline Grade): Grade 1-2 (%) [2, 8]: 14 (78%) (%)
SGPT, worst CTC Grade by cycle (increased of at least one Grade versus baseline Grade): Grade 3-4 (%) [2, 8]: 2 (11%) (%)
Total Bilirubin, worst CTC Grade by cycle (increased of at least one Grade versus baseline Grade): All Grades (%) [2, 8]: 14 (77%) (%)
Total Bilirubin, worst CTC Grade by cycle (increased of at least one Grade versus baseline Grade): Grade 1-2 (%) [2, 8]: 13 (72%) (%)
Total Bilirubin, worst CTC Grade by cycle (increased of at least one Grade versus baseline Grade): Grade 3-4 (%) [2, 8]: 1 (5%) (%)
SGOT, worst CTC Grade by cycle (increased of at least one Grade versus baseline Grade): All Grades (%) [2, 9]: 4 (57%) (%)
SGOT, worst CTC Grade by cycle (increased of at least one Grade versus baseline Grade): Grade 1-2 (%) [2, 9]: 2 (28%) (%)
SGPT, worst CTC Grade by cycle (increased of at least one Grade versus baseline Grade): All Grades (%) [2, 9]: 4 (57%) (%)
SGPT, worst CTC Grade by cycle (increased of at least one Grade versus baseline Grade): Grade 1-2 (%) [2, 9]: 1 (14%) (%)
Total Bilirubin, worst CTC Grade by cycle (increased of at least one Grade versus baseline Grade): All Grades (%) [2, 9]: 7 (100%) (%)
Total Bilirubin, worst CTC Grade by cycle (increased of at least one Grade versus baseline Grade): Grade 1-2 (%) [2, 9]: 7 (100%) (%)
SGOT, worst CTC Grade by cycle (increased of at least one Grade versus baseline Grade): All Grades (%) [2, 10]: 4 (80%) (%)
SGOT, worst CTC Grade by cycle (increased of at least one Grade versus baseline Grade): Grade 1-2 (%) [2, 10]: 1 (20%) (%)
SGOT, worst CTC Grade by cycle (increased of at least one Grade versus baseline Grade): Grade 3-4 (%) [2, 10]: 3 (60%) (%)
Total Bilirubin, worst CTC Grade by cycle (increased of at least one Grade versus baseline Grade): All Grades (%) [2, 10]: 4 (80%) (%)
Total Bilirubin, worst CTC Grade by cycle (increased of at least one Grade versus baseline Grade): Grade 1-2 (%) [2, 10]: 3 (60%) (%)
Total Bilirubin, worst CTC Grade by cycle (increased of at least one Grade versus baseline Grade): Grade 3-4 (%) [2, 10]: 1 (20%) (%)
SGPT, worst CTC Grade by cycle (increased of at least one Grade versus baseline Grade): All Grades (%) [2, 11]: 5 (83%) (%)
SGPT, worst CTC Grade by cycle (increased of at least one Grade versus baseline Grade): Grade 3-4 (%) [2, 11]: 5 (83%) (%)
frequency of transaminitis, grade 3-4 events ([2]; q6wk versus q8wk schedule): lower in the q6wk than in the q8wk schedule
lesion area reduction versus baseline ([3]; 200 mcg/m^2 q6wk, one patient AJCC stage II (confirmed PR), CT scan 5 weeks after going off study): 70%
tumor shrinkage versus baseline ([3]; 200 mcg/m^2 q6wk, one patient AJCC stage II (confirmed PR), after 2 cycles): 64%
duration of PR in the original lesion (right lobe) ([3]; 200 mcg/m^2 q8wk, one patient AJCC stage II (unconfirmed PR)): ≥ 12 months
decrease in tumor area versus baseline ([3]; 200 mcg/m^2 q8wk, one patient AJCC stage II (unconfirmed PR), after 2 cycles): 85.9%
shrinkage of measurable lesion versus baseline ([3]; 200 mcg/m^2 q8wk, one patient AJCC stage III (confirmed PR), after 1 cycle): 78.45%
